# Tests used:
# [1] = system: cells; conditions: Abe, E. et al. (1981); cited from earlier work
# [2] = system: interleukins; conditions: Muller, K. et al. (1988); cited from earlier work
# [3] = system: sebaceous glands in the ears of male Syrian hamsters; conditions: topical application, Malloy, V. L. et al. (1989); cited from earlier work
# [4] = system: calcium metabolism; assay: calciuric effect in rats relative to 1α,25(OH)2 D3 (calcium metabolism); assay type: in vivo; conditions: number smaller than 1 = less change in calcium excretion
# Text: ^b This test determines the calciuric effect in rats of the compound
# relative to 1α,25(OH)2 D3. A number smaller than 1
# indicates less change in calcium excretion of the compound in question
# when compared to 1α,25(OH)2 D3. The test was, as above,
# performed exactly as described: L. Binderup and E. Bramm, Biochem.
# [5] = system: U937 human histiocytic leukemia cells; assay: antiproliferative effect in U937 human histiocytic leukemia cells relative to 1α,25(OH)2 D3; assay type: cell-based; conditions: number greater than 1 = higher antiproliferative activity
# Description: ^a This test determines the antiproliferative effect in U937 human
# histiocytic leukemia cells of the compound relative to
# 1α,25(OH)2 D3. A number greater than 1 indicates a higher
# antiproliferative activity of the compound in question when compared to
# 1α,25(OH)2 D3. The test was performed exactly as
# described: L. Binderup and E. Bramm, Biochem. Pharmacol., 37, (1988)
# [6] = acid stability: approximate half life in conc. ^2 HCl/^2 H2 O in C^2 H3 CN determined by ^1 H NMR; assay type: physicochemical; conditions: dcl/d2o in cd3cn; 10 μl conc. ^2 HCl/^2 H2 O in C^2 H3 CN (0.6 ml), 25° C., ^1 H NMR at 500 MHz
# Description: | ^c In this test, the compound was treated with a mixture of 10 μl | conc. ^2 HCl/^2 H2 O in C^2 H3 CN (0.6 ml) at | 25° C. and the approximate half life was determined by ^1 H NM | at 500 MHz.
Calcium metabolism (calciuric effect) [4],half-life [6] [min],Compound,cell differentiation and proliferation [1],effects and/or production of interleukins [2],size of sebaceous glands [3],"U937, inhib. of prolifer. [5]"
–,–,"C=C1/C(=C\C=C2/CCC[C@]3(C)[C@@H]([C@H](C)CCCC(C)(C)O)CC[C@@H]23)C[C@@H](O)C[C@@H]1O [1,25(OH)2 D3, 1α,25-dihydroxy-vitamin D3]",able to stimulate the differentiation of cells and inhibit excessive cell proliferation,influences the effects and/or production of interleukins,reduces the size of sebaceous glands,–
0.005,–,C=C1/C(=C\C=C2/CCC[C@]3(C)[C@@H]([C@H](C)/C=C/[C@@H](O)C4CC4)CC[C@@H]23)C[C@@H](O)C[C@@H]1O [Calcipotriol],–,–,–,1
0.2,–,"C=C1/C(=C\C=C2/CCC[C@]3(C)[C@@H]([C@H](C)/C=C/C#CC(O)(CC)CC)CC[C@@H]23)C[C@@H](O)C[C@@H]1O [Compound 101, 1(S),3(R)-Dihydroxy-20(R)-(5-ethyl-5-hydroxy-hept-1(E)-en-3-yn-1-yl)-9,10-seco-pregna-5(Z),7(E),10(19)-triene]",–,–,–,89
0.015,15 to 30,"C=C1/C(=C\C=C2/CCC[C@]3(C)[C@@H]([C@@H](C)/C=C/C#CC(O)(CC)CC)CC[C@@H]23)C[C@@H](O)C[C@@H]1O [Compound 102, 1(S),3(R)-Dihydroxy-20(S)-(5-ethyl-5-hydroxy-hept-1(E)-en-3-yn-1-yl)-9,10-seco-pregna-5(Z),7(E),10(19)-triene]",–,–,–,1.1
0.4,< 5,"C=C1/C(=C\C=C2/CCC[C@]3(C)[C@@H]([C@H](C)/C=C/C=C/C(O)(CC)CC)CC[C@@H]23)C[C@@H](O)C[C@@H]1O [EB1089, 1(S),3(R)-Dihydroxy-20(R)-(5'-ethyl-5'-hydroxy-hepta-1' (E),3'(E)-dien-1'-yl)-9,10-secopregna-5(Z),7(E), 10(19)-triene]",–,–,–,68
